{
  "source": "patent US7244712B2",
  "about": "“Aminoglycoside antibiotics and methods of using same” (priority 2004, dated 2007)",
  "key": {"E. coli (ATCC 25922) [1]": {"system": "E. coli (ATCC 25922)", "experiment": "Bactericidal activity (bactericide index)", "type": "cell-based", "details": "3 h incubation, FIG. 8", "method": "The bactericidal activity of each antibiotic was investigated at concentrations of 0.5-4×MIC in medium E. coli (ATCC 25922) inoculum was added to 0.5 mL medium 2 to OD 600 ˜0.1 together with different antibiotic concentrations. The samples were incubated at 37° C. for 3 hrs, and the bacteria were collected by centrifugation. The bacterial pellets were washed with 0.5 mL of medium 2 and were plated on 1.5% medium 2 agar in 100 mm Petri dishes. The plates were incubated for 1-2 days at 37° C. and mean log 10 change in viable count was calculated and plotted vs drug concentration."}, "80S ribosome": {"target": "80S ribosome", "experiment": "Fluorescence anisotropy binding to 80S ribosomes", "design": "species or system yeast (S. cerevisiae)", "details": "competition with CRP, yeast ribosomes; read-out: Dissociation constant (KD) with 80S ribosome", "method": "After establishing the lack of stereospecificity in the binding of aminoglycosides to the A-site RNA constructs (FIG. 9A-C) where the binding affinity, KD, is about 0.1 μM to about 100 μM, the stereospecificity of aminoglycoside binding to intact ribosomes was determined. Both yeast and E. coli ribosomes were prepared and aminoglycoside binding was measured using fluorescence anisotropy methods. For example, fluorescence anisotropy methods recited in Wang, Y., and Rando, R. R. Chem. Biol. (1995) 2, 281-290; and Wang, Y., Hamasaki, K., and Rando, R. R. Biochemistry (1997) 36,768-779. CRP was used as the binding probe. […] Binding data reported herein for aminoglycoside compounds with eukaryotic yeast ribosomes are similar to binding data for said aminoglycoside compounds with ribosoimes in bacteria and with eukaryotic A-site rRNA constructs.\n5-Carboxytetramethylrhodamine-labeled paromomycin (CRP) and tobramycin (CRT) concentrations were determined spectroscopically at 550 nm using a molar extinction coefficient of 6.00×10 4 M −1 cm −1. Fluorescence anisotropy measurements were performed on a Perkin-Elmer LS-50B luminescence spectrometer equipped with a thermostat accurate to ±0.1° C. as indicated previously (Wang, Y., Hamasaki, K., & Rando, R. R. (1997) Biochemistry 36, 768-779). The tracer solution was excited at 550 nm and monitored at 580 nm. The integration time was 5 s. For every point, 6 measurements were taken, and their average values were used for calculation. Measurements were carried out in a buffer solution containing 150 mM NaCl, 5 mM KCl, 1 mM CaCl2, 1 mM MgCl2, and 20 mM HEPES (pH 7.5). Prior to measurements, RNA constructs were renatured by incubating in binding buffer {150 mM NaCl, 5 mM KCl, 1 mM CaCl2, 1 mM MgCl2, and 20 mM HEPES (pH 7.5)} for 3 minutes at 90° C. followed by slow cooling to 25° C.\nEquation 1 was used for the determination of the dissociation constant (Kd) for the interactions between RNA or ribosome and CRP. A=A0+DA{(RNA)0+(CRP)0+Kd−({(RNA)0+(CRP)0+Kd}^2−4(RNA)0(CRP)0)½}/2 where A and A0 are the fluorescence anisotropy of CRP in the presence and absence of RNA, respectively, and DA is the difference between the fluorescence anisotropy of CRP in the presence of an extrapolated infinite concentration of RNA minus the fluorescence anisotropy in the absence of RNA. (RNA)0 and (CRP)0 are the initial concentrations of RNA and CRP, respectively.\nEquation 2 is used for the calculation of the KD values in the competition binding assay. (aminoglycoside)0={KD(A−−A)/Kd(A−A0)+1}{(RNA)0−Kd(A−A0)/(A−−A)−(CRP)0(A−A0)/(A−−A)} where KD is the dissociation constant between the RNA and the aminoglycosides; (aminoglycoside)0 is the initial concentration of the aminoglycosides; AL is anisotropy of completely bound tracer. Both Kd and KD were determined by non-linear curve fitting using the equations described above, and are presented as mean values of three independent measurements.\nThe purification of yeast 80S ribosomes from S. cerevisiae strain YSB 758 was carried out according to the published procedure (Verschoor, A., Warner, J. R., Srivastava, S., Grassucci, R. A., & Frank, J. (1997) Nucl. Acid Res. 26, 655-661). S. cerevisiea YSB 758 were grown for 12 hrs at 30° C. in 2L of YPD medium, containing: 20 g bacto peptone, 20 g glucose, 10 g yeast extract and 0.15 g tryptophan per 1 L, pH 7.0. The cells were lysed by 5-10 cycles of 1 min vigorous shaking with glass beads with a vortex, followed by cooling on ice. Clarified cell extract (about 9 mL total, used in 6 portions in 1.5 mL aliqouts) was carefully loaded on top of 2 mL of a cushion, composed of 10% sucrose and 5% ammonium sulfate dissolved in buffer YR1 (20 mM HEPES pH=7.4, 16 mM magnesium chloride, 100 mM potassium chloride, 5 mM DTT, and 0.5 mM EDTA). The ribosomes were collected by centrifugation in Beckman TL100.3 rotor at 75000 rpm for 3 h. The supernatants were carefully discarded and ribosomes were collected in buffer YR1. […]"}, "E. faecalis": {"system": "E. faecalis", "experiment": "Antibacterial activity against E. faecalis", "type": "cell-based"}, "[2]": {"system": "E. coli (ATCC 25922) transformed with the plasmid pMM, bearing the APH(3')IIa gene", "experiment": "Antibiotic activity disk assay, kanamycin/neomycin resistant E. coli", "type": "cell-based", "details": "FIG. 7B", "method": "(§1) E. coli (ATCC 25922) and P. aeruginosa (ATCC 27853) (BD Bioscience) were inoculated in 3 mL of the medium 2 (U.S. Pharmacopia), containing 6 g peptone, 3 g yeast extract and 1.5 g beef extract per 1 L, pH 6.6, and were grown in a shaker for 6 h at 37° C. until an OD 560=0.6-0.8 was reached.\n(§2) For the antibiotic disk assay, […] of each bacterial inoculum was mixed with 10 mL of melted agar (1.5% medium 2 agar, BD Bioscience) at 50-55° C. and poured onto 100 mm Petri dishes. Sterile Whatmann 3 MM 5 mm paper disks were soaked with antibiotic solutions and allowed to dry. The disks were positioned evenly on the surface of bacterial-inoculated solid agar and the plates were incubated at 37° C. for 1-2 days. MIC and bactericide index measurements."}, "E. coli (ATCC 25922) [3]": {"system": "E. coli (ATCC 25922)", "experiment": "Antibiotic activity disk assay, wild type E. coli", "type": "cell-based", "details": "FIG. 7A", "method": "as §1, §2"}},
  "note": "“Also recorded” adds a separate entry of the source.",
  "data": [
    {"smiles": "NCC1OC(OC2C(N)CC(N)C(O)C2O)C(N)C(O)C1O", "note": "[L-Neamine]", "values": [
      {"measurement": "Concentration at which bactericidal effect begins", "setting": "E. coli (ATCC 25922) [1]", "result": 600, "unit": "µM"},
      {"measurement": "Kd", "setting": "80S ribosome", "result": "6.06 ± 0.63", "unit": "µM"},
      {"measurement": "Antibacterial activity against E. faecalis", "setting": "E. faecalis", "result": "little to no antibacterial activity"},
      {"measurement": "Antibiotic activity in disk assay, kanamycin/neomycin resistant E. coli", "setting": "[2]", "result": "maintained antibiotic activity; also recorded: maintaines substantially the same level of activity"},
      {"measurement": "Antibiotic activity in disk assay, WT E. coli", "setting": "E. coli (ATCC 25922) [3]", "result": "somewhat lower activity"}
    ]}
  ]
}
